Source: PubChem BioAssay (NCI)
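All cell lines were grown in 96-well plates and treated with compound for 48 hours. At the GI50, growth is halved. At the TGI there is no net growth.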

Columns and labels:
Assay in all cases: NCI tumour cell line growth inhibition, 48 h
ACHN renal = tested on: ACHN renal
SF-295 CNS = tested on: SF-295 CNS
UACC-257 melanoma = tested on: UACC-257 melanoma
OVCAR-4 ovarian = tested on: OVCAR-4 ovarian
IGROV1 ovarian = tested on: IGROV1 ovarian
SNB-75 CNS = tested on: SNB-75 CNS
LOX IMVI melanoma = tested on: LOX IMVI melanoma
OVCAR-8 ovarian = tested on: OVCAR-8 ovarian
NCI/ADR-RES ovarian = tested on: NCI/ADR-RES ovarian
SF-268 CNS = tested on: SF-268 CNS
HCT-15 colon = tested on: HCT-15 colon
HS 578T breast = tested on: HS 578T breast
MDA-MB-231 breast = tested on: MDA-MB-231 breast
OVCAR-3 ovarian = tested on: OVCAR-3 ovarian
SK-MEL-2 melanoma = tested on: SK-MEL-2 melanoma
NCI-H522 lung = tested on: NCI-H522 lung
NCI-H460 lung = tested on: NCI-H460 lung
M14 melanoma = tested on: M14 melanoma
HOP-62 NSCLC = tested on: HOP-62 NSCLC
HOP-92 NSCLC = tested on: HOP-92 NSCLC
HT29 colon = tested on: HT29 colon
T-47D breast = tested on: T-47D breast
UACC-62 melanoma = tested on: UACC-62 melanoma
SR leukemia = tested on: SR leukemia
MALME-3M melanoma = tested on: MALME-3M melanoma
SW-620 colon = tested on: SW-620 colon
PC-3 prostate = tested on: PC-3 prostate
SN12C renal = tested on: SN12C renal
SK-MEL-5 melanoma = tested on: SK-MEL-5 melanoma
A549 NSCLC = tested on: A549 NSCLC
SK-OV-3 ovarian = tested on: SK-OV-3 ovarian
COLO 205 colon = tested on: COLO 205 colon
EKVX NSCLC = tested on: EKVX NSCLC
RPMI-8226 leukemia = tested on: RPMI-8226 leukemia
MCF7 breast = tested on: MCF7 breast
U251 CNS = tested on: U251 CNS
NCI-H23 lung = tested on: NCI-H23 lung
CAKI-1 renal = tested on: CAKI-1 renal
HCT-116 colon = tested on: HCT-116 colon
K-562 leukemia = tested on: K-562 leukemia
UO-31 renal = tested on: UO-31 renal
OVCAR-5 ovarian = tested on: OVCAR-5 ovarian
BT-549 breast = tested on: BT-549 breast
SNB-19 CNS = tested on: SNB-19 CNS
A498 renal = tested on: A498 renal
NCI-H226 lung = tested on: NCI-H226 lung
786-0 renal = tested on: 786-0 renal
SF-539 CNS = tested on: SF-539 CNS
RXF 393 renal = tested on: RXF 393 renal
KM12 colon = tested on: KM12 colon
DU-145 prostate = tested on: DU-145 prostate
SK-MEL-28 melanoma = tested on: SK-MEL-28 melanoma
MDA-MB-435 = tested on: MDA-MB-435
CCRF-CEM leukemia = tested on: CCRF-CEM leukemia
HCC-2998 colon = tested on: HCC-2998 colon
TK-10 renal = tested on: TK-10 renal

c1cc2nnc1SCCSCCSCCSc1ccc(nn1)SCCSCCSCCS2
TGI (ACHN renal): > 100 µM | TGI (SF-295 CNS): > 100 µM | TGI (UACC-257 melanoma): > 100 µM | TGI (OVCAR-4 ovarian): > 100 µM | TGI (IGROV1 ovarian): > 100 µM | TGI (SNB-75 CNS): > 100 µM | TGI (LOX IMVI melanoma): > 100 µM | TGI (OVCAR-8 ovarian): > 100 µM | TGI (NCI/ADR-RES ovarian): > 100 µM | TGI (SF-268 CNS): > 100 µM | TGI (HCT-15 colon): > 100 µM | TGI (HS 578T breast): > 100 µM | TGI (MDA-MB-231 breast): > 100 µM | TGI (OVCAR-3 ovarian): > 100 µM | TGI (SK-MEL-2 melanoma): > 100 µM | TGI (NCI-H522 lung): > 100 µM | TGI (NCI-H460 lung): > 100 µM | TGI (M14 melanoma): > 100 µM | TGI (HOP-62 NSCLC): > 100 µM | TGI (HOP-92 NSCLC): > 100 µM | TGI (HT29 colon): > 100 µM | TGI (T-47D breast): > 100 µM | TGI (UACC-62 melanoma): > 100 µM | TGI (SR leukemia): > 100 µM | TGI (MALME-3M melanoma): > 100 µM | TGI (SW-620 colon): > 100 µM | TGI (PC-3 prostate): > 100 µM | TGI (SN12C renal): > 100 µM | TGI (SK-MEL-5 melanoma): > 100 µM | TGI (A549 NSCLC): > 100 µM | TGI (SK-OV-3 ovarian): > 100 µM | TGI (COLO 205 colon): > 100 µM | TGI (EKVX NSCLC): > 100 µM

[N-]=[N+]=NCCCn1c2c(c3ccc([N+](=O)[O-])cc3c1=O)C(=O)c1cc(-c3ccccc3)ccc1-2
GI50 (ACHN renal): > 100 µM | TGI (ACHN renal): > 100 µM | GI50 (RPMI-8226 leukemia): > 100 µM | TGI (RPMI-8226 leukemia): > 100 µM | GI50 (SF-295 CNS): > 100 µM | TGI (SF-295 CNS): > 100 µM | GI50 (UACC-257 melanoma): > 100 µM | TGI (UACC-257 melanoma): > 100 µM | GI50 (MCF7 breast): > 100 µM | TGI (MCF7 breast): > 100 µM | GI50 (U251 CNS): > 100 µM | TGI (U251 CNS): > 100 µM | GI50 (OVCAR-4 ovarian): > 100 µM | TGI (OVCAR-4 ovarian): > 100 µM | GI50 (NCI-H23 lung): > 100 µM | TGI (NCI-H23 lung): > 100 µM | GI50 (CAKI-1 renal): > 100 µM | TGI (CAKI-1 renal): > 100 µM | GI50 (IGROV1 ovarian): > 100 µM | TGI (IGROV1 ovarian): > 100 µM | GI50 (HCT-116 colon): > 100 µM | TGI (HCT-116 colon): > 100 µM | GI50 (SNB-75 CNS): 43.3 µM | TGI (SNB-75 CNS): > 100 µM | TGI (K-562 leukemia): > 100 µM | GI50 (LOX IMVI melanoma): > 100 µM | TGI (LOX IMVI melanoma): > 100 µM | GI50 (UO-31 renal): > 100 µM | TGI (UO-31 renal): > 100 µM | GI50 (OVCAR-8 ovarian): > 100 µM | TGI (OVCAR-8 ovarian): > 100 µM | GI50 (NCI/ADR-RES ovarian): > 100 µM | TGI (NCI/ADR-RES ovarian): > 100 µM | GI50 (OVCAR-5 ovarian): > 100 µM | TGI (OVCAR-5 ovarian): > 100 µM | GI50 (SF-268 CNS): > 100 µM | TGI (SF-268 CNS): > 100 µM | GI50 (HCT-15 colon): > 100 µM | TGI (HCT-15 colon): > 100 µM | GI50 (BT-549 breast): > 100 µM | TGI (BT-549 breast): > 100 µM | GI50 (HS 578T breast): 56.5 µM | TGI (HS 578T breast): > 100 µM | GI50 (MDA-MB-231 breast): > 100 µM | TGI (MDA-MB-231 breast): > 100 µM | GI50 (OVCAR-3 ovarian): > 100 µM | TGI (OVCAR-3 ovarian): > 100 µM | GI50 (SNB-19 CNS): > 100 µM | TGI (SNB-19 CNS): > 100 µM | GI50 (SK-MEL-2 melanoma): > 100 µM | TGI (SK-MEL-2 melanoma): > 100 µM | GI50 (NCI-H522 lung): > 100 µM | TGI (NCI-H522 lung): > 100 µM | GI50 (NCI-H460 lung): > 100 µM | TGI (NCI-H460 lung): > 100 µM | GI50 (M14 melanoma): > 100 µM | TGI (M14 melanoma): > 100 µM | GI50 (A498 renal): > 100 µM | TGI (A498 renal): > 100 µM | GI50 (HOP-62 NSCLC): > 100 µM | TGI (HOP-62 NSCLC): > 100 µM | GI50 (HOP-92 NSCLC): > 100 µM | TGI (HOP-92 NSCLC): > 100 µM | GI50 (HT29 colon): > 100 µM | TGI (HT29 colon): > 100 µM | GI50 (T-47D breast): > 100 µM | TGI (T-47D breast): > 100 µM | GI50 (UACC-62 melanoma): > 100 µM | TGI (UACC-62 melanoma): > 100 µM | GI50 (SR leukemia): 37.2 µM | TGI (SR leukemia): > 100 µM | GI50 (NCI-H226 lung): > 100 µM | TGI (NCI-H226 lung): > 100 µM | GI50 (MALME-3M melanoma): > 100 µM | TGI (MALME-3M melanoma): > 100 µM | GI50 (SW-620 colon): > 100 µM | TGI (SW-620 colon): > 100 µM | GI50 (786-0 renal): > 100 µM | TGI (786-0 renal): > 100 µM | GI50 (PC-3 prostate): > 100 µM | TGI (PC-3 prostate): > 100 µM | GI50 (SN12C renal): > 100 µM | TGI (SN12C renal): > 100 µM | GI50 (SF-539 CNS): > 100 µM | TGI (SF-539 CNS): > 100 µM | GI50 (SK-MEL-5 melanoma): 89 µM | TGI (SK-MEL-5 melanoma): > 100 µM | GI50 (RXF 393 renal): > 100 µM | TGI (RXF 393 renal): > 100 µM | GI50 (KM12 colon): > 100 µM | TGI (KM12 colon): > 100 µM | GI50 (DU-145 prostate): > 100 µM | TGI (DU-145 prostate): > 100 µM | GI50 (A549 NSCLC): > 100 µM | TGI (A549 NSCLC): > 100 µM | GI50 (SK-OV-3 ovarian): > 100 µM | TGI (SK-OV-3 ovarian): > 100 µM | GI50 (SK-MEL-28 melanoma): > 100 µM | TGI (SK-MEL-28 melanoma): > 100 µM | GI50 (MDA-MB-435): > 100 µM | TGI (MDA-MB-435): > 100 µM | GI50 (CCRF-CEM leukemia): > 100 µM | TGI (CCRF-CEM leukemia): > 100 µM | GI50 (HCC-2998 colon): > 100 µM | TGI (HCC-2998 colon): > 100 µM | GI50 (COLO 205 colon): > 100 µM | TGI (COLO 205 colon): > 100 µM | GI50 (EKVX NSCLC): > 100 µM | TGI (EKVX NSCLC): > 100 µM | GI50 (TK-10 renal): > 100 µM | TGI (TK-10 renal): > 100 µM

CCC1NC(=O)C(NC(=O)c2ncccc2O)C(C)OC(=O)C(c2ccccc2)NC(=O)C2CC(=O)CCN2C(=O)C(Cc2ccccc2)N(C)C(=O)C2CCCN2C1=O (centres undefined)
TGI (UACC-257 melanoma): > 100 µM | TGI (NCI-H23 lung): > 100 µM | TGI (BT-549 breast): > 100 µM | TGI (HOP-92 NSCLC): > 100 µM | TGI (NCI-H226 lung): > 100 µM
